From the supplement of paper PMC8633005

What was measured:
FM-MEL-2 [1] = test: drug sensitivity score (DSS) (DSS (unitless)); higher = more sensitive; details: 72 h
Description: (§1)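 Validation dose-response testing of selected drugs on NRAS-mutant melanoma patient-derived cells, run in 2D culture and in 3D spheroids (ultra-low attachment plates), in triplicate per concentration. Viability was read by CellTiter-Glo after 72 h. EC50 came from Breeze curve fitting, and DSS was calculated from the curve.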

FM-MEL-6 [2] = test: as above; details: 72 h
Description: as §1

FM-MEL-3 [3] = test: as above; details: 72 h
Description: as §1

FM-MEL-2 [4] = test: drug sensitivity score (DSS) (DSS (unitless, 0-50 scale)); higher = more sensitive (stronger viability inhibition); extreme values may be limits of the assay; details: 72 h; culture: 2D
Summary of the method: (§2)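 Patient-derived melanoma cultures and melanoma cell lines were grown in 2D in 384-well plates with a 527-compound oncology library at five concentrations spanning a 10,000-fold range, with 1000–1500 cells per well for the cultures. CellTiter-Glo luminescence gave viability after 72 h at 37 °C. The drug sensitivity score is a modified area-under-curve measure derived from dose-response curves fitted in the in-house Breeze software.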

WM852 = test: as above; details: 72 h; culture: 2D
Summary of the method: as §2

WM165 = test: as above; details: 72 h; culture: 2D
Summary of the method: as §2

SK-MEL-2 = test: as above; details: 72 h; culture: 2D
Summary of the method: as §2

FM-MEL-6 [5] = test: as above; details: 72 h; culture: 2D
Summary of the method: as §2

Bowes = test: as above; details: 72 h; culture: 2D
Summary of the method: as §2

FM-MEL-3 [6] = test: as above; details: 72 h; culture: 2D
Summary of the method: as §2

SK-MEL-28 = test: as above; details: 72 h; culture: 2D
Summary of the method: as §2

FM-MEL-2 [7] = details: 72 h
Description: as §1

FM-MEL-6 [8] = details: 72 h
Description: as §1

FM-MEL-3 [9] = details: 72 h
Description: as §1

| Structure (SMILES) | drug sensitivity score (FM-MEL-2 [1]; culture: 2D) | drug sensitivity score (FM-MEL-2 [1]; culture: 3D spheroid) | drug sensitivity score (FM-MEL-6 [2]; culture: 2D) | drug sensitivity score (FM-MEL-6 [2]; culture: 3D spheroid) | drug sensitivity score (FM-MEL-3 [3]; culture: 2D) | drug sensitivity score (FM-MEL-3 [3]; culture: 3D spheroid) | drug sensitivity score (FM-MEL-2 [4]) | drug sensitivity score (WM852) | drug sensitivity score (WM165) | drug sensitivity score (SK-MEL-2) | drug sensitivity score (FM-MEL-6 [5]) | drug sensitivity score (Bowes) | drug sensitivity score (FM-MEL-3 [6]) | drug sensitivity score (SK-MEL-28) | EC50 (cell viability) (FM-MEL-2 [7]; culture: 2D) [nM] | EC50 (cell viability) (FM-MEL-2 [7]; culture: 3D spheroid) [nM] | EC50 (cell viability) (FM-MEL-6 [8]; culture: 2D) [nM] | EC50 (cell viability) (FM-MEL-6 [8]; culture: 3D spheroid) [nM] | EC50 (cell viability) (FM-MEL-3 [9]; culture: 2D) [nM] | EC50 (cell viability) (FM-MEL-3 [9]; culture: 3D spheroid) [nM] |
| --- | --- | --- | --- | --- | --- | --- | --- | --- | --- | --- | --- | --- | --- | --- | --- | --- | --- | --- | --- | --- |
| Cn1cnc2c(F)c(Nc3ccc(Br)cc3F)c(C(=O)NOCCO)cc21 [Binimetinib] | 11 | 12.9 | 9.4 | 15.7 | 19.5 | 21.1 | 8.7 | 0.4 | 9.5 | 6.3 | 7.7 | 0 | 13.7 | 8.8 | 40.3 | 28.8 | 34.3 | 15.7 | 7.2 | 10.1 |
| COc1ccc(-c2ccc3c(N4CCOC[C@@H]4C)nc(N4CCOC[C@@H]4C)nc3n2)cc1CO [AZD8055] | 18.2 | 18.1 | 11.3 | 13.4 | 20.3 | 26.2 | 15.6 | 15 | 21.7 | 13.9 | 17.3 | 20.1 | 14.2 | 16.4 | 60.6 | 54.1 | 94.2 | 66.2 | 72.8 | 50.7 |
| COc1cc(OC)c(/C=C/S(=O)(=O)Cc2ccc(OC)c(NCC(=O)O)c2)c(OC)c1 [Rigosertib] | 10.8 | 10.5 | 8.6 | 1.3 | 13.2 | 16.9 | 7.6 | 22.6 | 21.4 | 17 | 18.6 | 19.9 | 15.5 | 9.5 | 44.2 | 110 | 56.2 | 1540 | 42 | 39.2 |
| O=C(Nc1ccc2[nH]nc(-c3ccncc3)c2c1)[C@@H]1CCN(CC(=O)N2CCN(c3ccc(-c4ncccn4)cc3)CC2)C1 | 17.7 | 25 | 11.2 | 17.2 | 22.5 | 26.2 | 20.8 | 8.2 | 21.2 | 15.6 | 12.7 | 1.3 | 22.8 | 21.8 | 206 | 54.5 | 210 | 120 | 97.1 | 69 |
| COc1ncc(-c2ccc3nccc(-c4ccnnc4)c3c2)cc1NS(=O)(=O)c1ccc(F)cc1F [Omipalisib] | 16.9 | 17.5 | 14.9 | 19 | 24.1 | 27.3 | 15.3 | 13.8 | 15.5 | 9.5 | 14.7 | 16.9 | 17.9 | 16.3 | 5.5 | 4 | 5.5 | 4.4 | 7.3 | 5.2 |
| CC(C)Nc1cc(-c2c[nH]c(C(=O)N[C@H](CO)c3cccc(Cl)c3)c2)c(Cl)cn1 [Ulixertinib] | 16.5 | 19.4 | 8.1 | 15.3 | 17 | 25.2 | 15 | 4.1 | 12.6 | 9.7 | 7.6 | 4.2 | 17.1 | 13.3 | 127 | 76 | 236 | 125 | 279 | 83.1 |
| C=CCn1c(=O)c2cnc(Nc3ccc(N4CCN(C)CC4)cc3)nc2n1-c1cccc(C(C)(C)O)n1 [AZD1775] | 5.8 | 4.5 | 1.7 | 0 | 14 | 15.6 | 7.6 | 14.5 | 13.1 | 11.3 | 12.5 | 15.2 | 12.8 | 4.3 | 378 | 364 | 1800 | > 10000 | 242 | 257 |
| Cc1cn(-c2cc(NC(=O)c3ccc(C)c(Nc4nccc(-c5cccnc5)n4)c3)cc(C(F)(F)F)c2)cn1 [Nilotinib] | 10.9 | 16.7 | 0 | 0 | 9.5 | 15.1 | 12.4 | 0.8 | 0 | 0 | 2.1 | 0 | 8.5 | 0 | 869 | 270 | > 10000 | > 10000 | 940 | 266 |
| Cn1cnc2c(F)c(Nc3ccc(Br)cc3Cl)c(C(=O)NOCCO)cc21 [Selumetinib] | 19.7 | 20.3 | 16.3 | 21.9 | 23.8 | 27.1 | 16.5 | 4.9 | 17.3 | 13.2 | 13 | 0 | 24.9 | 18.2 | 75.6 | 71 | 83.6 | 56.1 | 78.9 | 56.4 |
| Cn1c(=O)n(-c2ccc(C(C)(C)C#N)cc2)c2c3cc(-c4cnc5ccccc5c4)ccc3ncc21 [Dactolisib] | 13.5 | 14.6 | 7.4 | 10.1 | 13.7 | 22.9 | 12.5 | 10.7 | 17.6 | 9.9 | 15.1 | 12.8 | 15.1 | 13.5 | 15.2 | 12.1 | 26.9 | 13.1 | 22.6 | 7.4 |
| CC(C)NC(=O)COc1cccc(-c2nc(Nc3ccc4[nH]ncc4c3)c3ccccc3n2)c1 [KD025] | 21.7 | 24.2 | 0 | 0 | 0 | 4.5 | 18.9 | 7.5 | 5.4 | 0 | 3 | 2.6 | 13 | 1.6 | 55.7 | 42.8 | > 5000 | > 5000 | > 5000 | 440 |
| CC(=O)Nc1cccc(-n2c(=O)n(C3CC3)c(=O)c3c(Nc4ccc(I)cc4F)n(C)c(=O)c(C)c32)c1 [Trametinib] | 22.3 | 23.3 | 17.1 | 24 | 27.6 | 34.6 | 18.1 | 6.8 | 21.2 | 17.9 | 15.6 | 1.8 | 26.1 | 21.1 | 0.6 | 0.5 | 1.3 | 0.5 | 0.8 | 0.2 |
| CNc1ncc2cc(-c3cc(NC(=O)NCCC(C)(C)C)c(F)cc3C)c(C)nc2n1 | 20.6 | 20.8 | 11.3 | 16.9 | 24.5 | 26.6 | 19.9 | 10.2 | 25.4 | 15.2 | 14.4 | 7.4 | 25.4 | 20.3 | 59.3 | 59.8 | 187 | 97.3 | 83.3 | 64.9 |
| O=C(c1ccc(F)c(F)c1Nc1ccc(I)cc1F)N1CC(O)([C@@H]2CCCCN2)C1 [Cobimetinib] | 20.2 | 21.8 | 10.4 | 19.5 | 20.7 | 26.6 | 15.5 | 4.3 | 21.3 | 11.5 | 9.4 | 0.3 | 20.7 | 21.3 | 5.7 | 4 | 28.1 | 8.1 | 12.5 | 6.2 |
| CC(C)(C)c1cc(NC(=O)Nc2ccc(-c3cn4c(n3)sc3cc(OCCN5CCOCC5)ccc34)cc2)no1 [Quizartinib] | 10.5 | 14.5 | 0 | 0 | 0 | 0 | 10.5 | 0.3 | 1 | 0 | 0 | 1.2 | 5.1 | 0 | 95.7 | 45.3 | > 1000 | > 1000 | > 1000 | > 1000 |
| COc1cccc(OCCCN)c1-c1cc(Nc2cnc(C#N)cn2)n[nH]1 [Prexasertib] | 7.7 | 4.9 | 6.4 | 0.8 | 21.1 | 25.6 | 10.5 | 27.7 | 24.1 | 28.7 | 26.6 | 28.6 | 19.1 | 8.6 | 851 | 2030 | 137 | 6570 | 52 | 48.7 |
